Read-outs that look alike come from different tables or passages of the source.
Legend:
E. coli K12 = test: Epifluorescence imaging of COE-treated E. coli K12; assay type: cell-based, Escherichia coli; settings: 32 μg/mL COE; excitation 365 nm, emission 445/50 nm
Protocol: E. coli K-12 was grown, collected and washed according to the procedure described above (in the uptake measurements). COE solutions (in PBS) were added to a PBS suspension of E. coli K12 (OD600=1.0) to achieve final COE concentrations of 32 μg/mL. After incubating for 2 hrs at room temperature under shaking (200 rpm), a drop of suspension was placed on a microscope slide with a cover slip (#1.5, 0.17 mm thickness) and imaged using an inverted widefield epifluorescence microscope with Plan-Apochromat 100x/1.4 phase contrast with oil immersion lens (Carl Zeiss Axio Observer Z1 Inverted Microscope). The fluorescence microscopy images were observed by collecting the fluorescence signal of COEs using the DAPI dye channel (filter set 49 DAPI with excitation peak at 365 nm and emission at 445/50 nm). The bright field images of cells were obtained at exact same location using phase contrast transmitted light technique (Plan-Apochromat 100x/1.4 phase contrast with oil immersion lens). The cell images treated by different COEs were obtained under identical conditions with the matching irradiation frequency and exposure time.
Epi-fluorescence images of the COE-treated E. coli K12 cells were acquired by excitation at λ=365 nm and collecting emission at λ=445/50 nm.

[1] = test system: Acinetobacter baumannii ATCC 19606; test: Single-dose growth inhibition, Ab; assay type: cell-based
Protocol: Inhibition of bacterial growth was determined by measuring the absorbance at 600 nm (OD600), using a Tecan M1000 Pro monochromator plate reader. Growth inhibition was calculated for each well, relative to the reference growths determined from a negative control (media only) and positive control (bacteria without inhibitors) incubated in the same plate. A single dose of 32 μg/mL of COE (final concentration) was used for each test.
(§1) Percentage growth inhibition of an individual sample was calculated based on growth in a reference well determined from negative controls (media only) and positive controls (bacterial/fungal media without inhibitors). Negative inhibition values indicate that the growth rate (or OD600) is higher compared to the reference growth (bacteria/fungi only, set to 0% inhibition). The growth rates for all bacteria and fungi may vary at −/+10%, which were within the reported normal distribution of bacterial/fungal growth. Any significant variations (or outliers/hits) were identified by the modified Z-Score, and the active compounds were selected by a combination of inhibition values and Z-Score.
(§2) A M(i) value of >|2.5| (absolute) would classify the sample as outliers or hits. Active samples were denoted as compounds with inhibition values equal to or above 80% and absolute Z-Score above |2.5| for either replicate (n=2 on different plates). Partial active samples were denoted as compounds with inhibition values from 50% to <80%, or absolute Z-Score below |2.5|.

[2] = DSC of treated unilamellar vesicles; settings: POPE:POPG 85:15 vesicles
Protocol: POPE (1-palmitoyl-2-oleoyl-phosphatidylethanolamine) and POPG (1-palmitoyl-2-oleoyl-phosphatidylglycerol) were purchased as chloroform stocks from Avanti Polar Lipids. POPE and POPG were mixed to a molar ratio of 85:15 and dried under a gentle stream of nitrogen. The lipid cake obtained was further desiccated for overnight to obtain a thin lipid film. Rehydration of the dried film was carried out by adding 25 mM Tris, 150 mM NaCl, pH 7.5, to a concentration of 4.3 mg/mL, followed by incubation at 45° C. for 2 hrs, under constant stirring using a magnetic stirrer at around 300 rpm. To prepare the unilamellar vesicles, the vesicles suspension was repeatedly extruded through a polycarbonate membrane of 100 nm pores (21 times) at 45° C. The extruded vesicle sample was kept at 4° C. till further use. The vesicle solution was diluted to 0.86 mg/mL with buffer (25 mM Tris, 150 mM NaCl, pH 7.5) or the COE solution (25 mM Tris, 150 mM NaCl, pH 7.5) before the DSC measurements.
Unilamellar vesicles composed of 1-palmitoyl-2-oleoylphosphatidylethanolamine (POPE) and 1-palmitoyl-2-oleoylphosphatidylglycero (POPG) in a molar ratio of 85:15 were prepared in accordance to the general method “Preparation of Small Unilamellar Vesicles” and were used as a generic bacterial model membrane (G. J. Gabriel, et al., Mater. Sci. Eng. R 2007, 57, 28-64).
When subjected to DSC, the main gel-to-liquid-crystal transition peaks broadened after incubation with 8 μg mL^−1 of COE-D8 (FIG. 7a). For COE-D6, a higher concentration (16 μg mL^−1) was needed to change the initial trace (FIG. 7b). […] The perturbation to the cooperative transition of the lamellar phase reflects varying degrees of membrane intercalation. This observation correlates well with solubility and the alkyl chain length (Table 1a). Due to its lower aqueous solubility, COE-D8 is likely to partition more readily into hydrophobic domains of the lipid bilayer, leading to the weakened phase transition observed in the vesicles.

[3] = test system: organism classes (Gram-negative, Gram-positive and fungi); test: Single-dose screening summary by organism class; assay type: cell-based; settings: 32 μg/mL; 0 = no activity
Protocol: as §1
Z-Score analysis was carried out to investigate outliers or hits among the samples. The Z-Score was calculated based on the sample population using a modified Z-Score method which accounts for possible skewed sample population. The modified method uses median and MAD ([…]) instead of average and standard deviation, and a scaling factor (Iglewicz, B. & Hoaglin, D. C. Volume 16: How to Detect and Handle Outliers. The ASQC Basic Reference in Quality Control: Statistical Techniques, 1993). The equation to calculate the modified Z-Score value is as follow: […]
as §2

[4] = test system: Candida albicans ATCC 90028; test: Single-dose growth inhibition, Ca; assay type: cell-based
Protocol: Growth inhibition of C. albicans was determined by measuring the absorbance at 530 nm (OD530), while the growth inhibition of C. neoformans was determined by measuring the difference in absorbance between 600 and 570 nm (OD600-570), after the addition of resazurin (0.001 wt. % final concentration) and incubation at 35° C. for additional 2 hrs. The absorbance was measured using a Biotek Synergy HTX plate reader. The relative growth inhibition was calculated for each well, relative to that determined from a negative control (media only) and positive control (bacteria without inhibitors) on the same plate as references. A single dose of 32 μg/mL of COE (final concentration) was used for each test.
as §1, §2

[5] = ATCC19606, read-out: Growth inhibition Ab
[6] = ATCC90028, read-out: Growth inhibition Ca
[7] = ATCC19606, 32 μg/mL single dose, n=2, read-out: Growth inhibition Ab
[8] = ATCC90028, 32 μg/mL single dose, n=2, read-out: Growth inhibition Ca

C[N+](C)(C)CCCCOc1ccc(/C=C/c2ccc(OCCCC[N+](C)(C)C)cc2)cc1 [COE-D4]
Fluorescence intensity of treated E. coli K12 cells relative to background (E. coli K12): indistinct image | inhibition at 32 µg/mL [1, 5]: < 50% | Concentration needed to change the gel-to-liquid-crystal transition peak (DSC) [2]: > 32 µg/mL | Activity: number of organism classes the compound has been found active against [3]: 2 | inhibition at 32 µg/mL [4, 6]: < 50%

C[N+](C)(C)CCCCCCOc1ccc(/C=C/c2ccc(OCCCCCC[N+](C)(C)C)cc2)cc1 [COE-D6]
Fluorescence intensity of treated E. coli K12 cells relative to background (E. coli K12): intermediate fluorescence intensity | inhibition at 32 µg/mL [1, 5]: < 50% | Concentration needed to change the gel-to-liquid-crystal transition peak (DSC) [2]: 16 µg/mL | Activity: number of organism classes the compound has been found active against [3]: 3 | inhibition at 32 µg/mL [4, 6]: > 80%

C[N+](C)(C)CCCCCCCCOc1ccc(/C=C/c2ccc(OCCCCCCCC[N+](C)(C)C)cc2)cc1 [COE-D8]
Fluorescence intensity of treated E. coli K12 cells relative to background (E. coli K12): highest fluorescence intensities | inhibition at 32 µg/mL [1, 5]: > 80% | Concentration needed to change the gel-to-liquid-crystal transition peak (DSC) [2]: 8 µg/mL | Activity: number of organism classes the compound has been found active against [3]: 3 | inhibition at 32 µg/mL [4, 6]: > 80%

CN(C)CC[N+](C)(C)CCCCCCOc1ccc(/C=C/c2ccc(OCCCCCC[N+](C)(C)CCN(C)C)cc2)cc1 [COE-D62N]
inhibition at 32 µg/mL [1, 7]: > 80% | Activity: number of organism classes the compound has been found active against [3]: 3 | inhibition at 32 µg/mL [4, 8]: > 80%

CN(C)CC[N+](C)(C)CCCCCCCCOc1ccc(/C=C/c2ccc(OCCCCCCCC[N+](C)(C)CCN(C)C)cc2)cc1 [COE-D82N]
inhibition at 32 µg/mL [1, 7]: > 80% | Activity: number of organism classes the compound has been found active against [3]: 3 | inhibition at 32 µg/mL [4, 8]: > 80%
